Series [1] concerns the target T1, ATP-binding cassette sub-family C member 2 (Rattus norvegicus, UniProt Q63120). Description: TP_TRANSPORTER: Western blot, H4IIE rat hepatoma cells. In kind it is functional, cell-based.
Series [2] addresses T1, ATP-binding cassette sub-family C member 2. Description: TP_TRANSPORTER: Northern blot from H4IIE rat hepatoma cells. In kind it is functional, cell-based.

T1 sequence (Q63120 whole entry): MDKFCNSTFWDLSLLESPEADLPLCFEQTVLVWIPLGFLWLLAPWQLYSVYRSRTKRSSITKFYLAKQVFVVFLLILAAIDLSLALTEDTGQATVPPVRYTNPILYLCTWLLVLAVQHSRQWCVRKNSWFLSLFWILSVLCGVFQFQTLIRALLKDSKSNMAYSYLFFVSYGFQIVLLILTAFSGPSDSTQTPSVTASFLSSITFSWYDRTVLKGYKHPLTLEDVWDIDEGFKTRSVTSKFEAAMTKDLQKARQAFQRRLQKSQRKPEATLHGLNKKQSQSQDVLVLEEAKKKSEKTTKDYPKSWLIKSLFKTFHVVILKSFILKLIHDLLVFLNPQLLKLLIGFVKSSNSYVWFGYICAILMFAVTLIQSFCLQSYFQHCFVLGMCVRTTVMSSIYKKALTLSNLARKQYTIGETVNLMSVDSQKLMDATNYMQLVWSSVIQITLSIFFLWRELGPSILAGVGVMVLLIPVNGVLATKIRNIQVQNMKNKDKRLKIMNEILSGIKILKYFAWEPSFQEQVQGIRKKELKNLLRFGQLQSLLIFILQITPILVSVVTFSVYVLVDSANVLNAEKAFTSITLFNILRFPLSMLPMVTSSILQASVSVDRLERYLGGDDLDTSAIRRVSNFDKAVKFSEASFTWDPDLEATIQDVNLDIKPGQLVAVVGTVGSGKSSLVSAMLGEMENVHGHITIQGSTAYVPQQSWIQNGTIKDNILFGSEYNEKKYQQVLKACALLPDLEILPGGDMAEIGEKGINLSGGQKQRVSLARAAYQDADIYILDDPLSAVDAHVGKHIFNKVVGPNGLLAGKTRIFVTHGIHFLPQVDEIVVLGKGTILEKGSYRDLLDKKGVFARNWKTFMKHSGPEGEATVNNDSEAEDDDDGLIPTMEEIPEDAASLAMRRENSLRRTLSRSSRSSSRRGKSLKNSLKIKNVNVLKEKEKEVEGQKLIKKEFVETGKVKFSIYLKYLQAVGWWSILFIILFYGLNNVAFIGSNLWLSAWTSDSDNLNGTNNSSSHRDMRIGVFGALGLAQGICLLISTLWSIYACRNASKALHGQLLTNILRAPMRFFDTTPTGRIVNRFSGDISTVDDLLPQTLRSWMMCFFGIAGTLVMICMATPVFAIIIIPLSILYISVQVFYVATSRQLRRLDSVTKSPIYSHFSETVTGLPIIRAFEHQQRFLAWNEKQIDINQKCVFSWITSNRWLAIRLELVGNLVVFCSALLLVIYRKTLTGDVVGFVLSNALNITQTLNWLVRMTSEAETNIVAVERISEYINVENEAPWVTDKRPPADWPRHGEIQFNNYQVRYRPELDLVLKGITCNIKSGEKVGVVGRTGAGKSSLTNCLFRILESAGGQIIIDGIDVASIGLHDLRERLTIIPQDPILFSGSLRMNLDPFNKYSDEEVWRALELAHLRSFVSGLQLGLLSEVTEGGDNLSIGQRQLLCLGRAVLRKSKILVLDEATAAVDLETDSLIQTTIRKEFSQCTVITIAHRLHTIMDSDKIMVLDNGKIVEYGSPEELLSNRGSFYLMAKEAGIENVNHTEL

With `C#C[C@]1(O)CC[C@H]2[C@@H]3CCc4cc(O)ccc4[C@H]3CC[C@@]21C` [ETHINYL ESTRADIOL], the Activity entry in series [1] and in series [2] was “inducer [+]” in each case.
As to `CCC1(c2ccccc2)C(=O)NC(=O)NC1=O` [PHENOBARBITAL], the Activity entry in series [1] and in series [2] was “inducer [+]” throughout.

The values are drawn from ChEMBL document CHEMBL2074360, “Sequence analysis and functional characterization of the 5'-flanking region of the rat multidrug resistance protein 2 (mrp2) gene” (Biochem Biophys Res Commun, 1998).
